The values below come from ChEMBL document CHEMBL1201862, “PubChem BioAssay data set” (2004).

Holding throughout (assay): NCI anticancer screen, dose series, 48 h
Experiment [1] deals with SNB-19.
Experiment [2] deals with SK-MEL-5.
Experiment [3] concerns DU-145.
Experiment [4] concerns MDA-MB-435.
Experiment [5] relates to MDA-MB-231.
The test system of experiment [6] is K562.
Experiment [7] concerns HOP-62.
For experiment [8], the system named is ACHN.
Experiment [9] has as its system RXF 393.
In experiment [10] the test system is Malme-3M.
In experiment [11] the test system is HCT-15.
The subject of experiment [12] is OVCAR-3.
The subject of experiment [13] is TK-10.
Experiment [14] concerns CAKI-1.
The subject of experiment [15] is COLO 205.
For experiment [16], the system named is SW-620.
Experiment [17] deals with SK-OV-3.
In experiment [18] the test system is SK-MEL-2.
Experiment [19] concerns NCI-H460.
For experiment [20], the system named is NCI-H522.

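Grown in 96-well plates, cells were treated for 48 hours with each compound at five concentrations. Insufficient inhibition: endpoint recorded as highest concentration tested. GI50 marks 50% less growth.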 Calls of active or inactive are those of the source. Rule as the data show it: active = GI50 up to about 1.1 µM and inactive = higher.

For `O=[N+]([O-])c1ccc(/C=C(/c2ccc([N+](=O)[O-])o2)S(=O)(=O)c2ccccc2)cc1`, the GI50 is 73.5 µM (inactive) in [1]; 13.9 µM (inactive) in experiment [2]; 35.5 µM (inactive) in experiment [3]; 60.8 µM (inactive) in experiment [4]; 14.3 µM (inactive) in [5]; 36.2 µM (inactive) in [6]. Also, the GI50 is 50.6 µM (inactive) in experiment [7]; > 100 µM (inactive) in [8]; > 100 µM (inactive) in experiment [9]; 25.2 µM (inactive) in experiment [10]; 26.9 µM in experiment [11]; 97.9 µM (inactive) in [12]. Further, the GI50 in experiment [13] was > 100 µM (inactive); in experiment [14] it was > 100 µM (inactive); in experiment [15], 47.6 µM (inactive); in experiment [16], 52 µM (inactive); in experiment [17] it was > 100 µM (inactive); in [18] it was > 100 µM (inactive). In addition, the GI50 is > 100 µM (inactive) in experiment [19] and 39.4 µM (inactive) in [20].

On to `Cc1ccc2c(O)cc(-c3ccc(Cl)s3)nc2n1`, for which the GI50 was 1.43 µM (inactive) in experiment [1]; 0.391 µM (active) in experiment [2]; 3.57 µM (inactive) in [3]; 0.223 µM (active) in [4]; 5.89 µM (inactive) in experiment [5]; 0.728 µM (active) in [6]. Moreover, the GI50 in experiment [7] was 2.31 µM (inactive); in [8], 8.79 µM (inactive); in experiment [9], 2.76 µM (inactive); in [10] it was 0.632 µM (active); in experiment [11], 0.405 µM; in experiment [12], 1.1 µM (active). In addition, the GI50 in [13] was 8.87 µM (inactive); in experiment [14], 3.24 µM (inactive); in experiment [15], 6.18 µM (inactive); in [16] it was 0.407 µM (active); in experiment [17] it was 1.83 µM (inactive); in experiment [18], 5.18 µM (inactive). Moreover, the GI50 in experiment [19] is 0.564 µM (active); in experiment [20] it was 0.502 µM (active).

In the case of `COc1ccc(/C=C(/C)[N+](=O)[O-])cc1`, the GI50 is 5.86 µM (inactive) in experiment [1]; 2.48 µM (inactive) in experiment [2]; 2.36 µM (inactive) in [3]; 1.95 µM (inactive) in experiment [4]; 3.24 µM (inactive) in experiment [5]; 2.62 µM (inactive) in experiment [6]. The GI50 in experiment [7] is 1.86 µM (inactive); in [8], 1.99 µM (inactive); in experiment [9], 1.69 µM (inactive); in [10], 2.11 µM (inactive); in experiment [11], 2.28 µM; in [12] it was 1.82 µM (inactive). The GI50 in [13] is 1.82 µM (inactive); in [14] it was 2.32 µM (inactive); in experiment [15], 2.08 µM (inactive); in experiment [16], 2.01 µM (inactive); in experiment [17], 5.98 µM (inactive); in [18] it was 4.95 µM (inactive). For the same molecule, the GI50 in [19] is 2.18 µM (inactive); in experiment [20], 0.292 µM (active).

With `O=C(O)CCC(O)=C1S(=O)(=O)OCCOS1(=O)=O`, the GI50 in experiment [1], in experiment [2], in experiment [3], in experiment [4], in experiment [5] and in experiment [6] was > 100 µM (inactive) throughout. Moreover, the GI50 was > 100 µM (inactive) in experiment [7]; > 100 µM (inactive) in experiment [8]; > 100 µM (inactive) in [9]; > 100 µM (inactive) in experiment [10]; greater than 100 µM in experiment [11]; > 100 µM (inactive) in experiment [12]. The GI50 in experiment [13], in [14], in [15], in experiment [16], in experiment [17] and in experiment [18] was > 100 µM (inactive) throughout. Moreover, the GI50 in experiment [19] and in experiment [20] was > 100 µM (inactive) each time.
